Earlier results as cited in US12533416B2, “Krill oil for solubilizing poorly water-soluble dietary supplements and pharmaceutically active agents” (ID CARE UG (haftungsbeschränkt), priority 2018, dated 2026).

Settings: Class 4 = low solubility

| SMILES | BCS class (solubility / permeability) |
| --- | --- |
| Nc1nc2c(ncn2COCCO)c(=O)[nH]1 [Aciclovir, aciclovir] | BCS Class 4 |
| CC[C@H]1OC(=O)[C@H](C)[C@@H](O[C@H]2C[C@@](C)(OC)[C@@H](O)[C@H](C)O2)[C@H](C)[C@@H](O[C@@H]2O[C@H](C)C[C@H](N(C)C)[C@H]2O)[C@](C)(O)C[C@@H](C)CN(C)[C@H](C)[C@@H](O)[C@]1(C)O [Azithromycin, azithromycin] | BCS Class 4 |
